The assay deals with Transcription factor p65 (Human, UniProt Q04206). Nature of the assay: Inhibition of NF-kappaB p65 isolated from nuclear extract of human HeLa cells assessed as blockade of binding to biotinylated consesus sequence by chemiluminescence assay.

Each structure is given as a SMILES string.

Transcription factor p65, sequence (Q04206 whole entry): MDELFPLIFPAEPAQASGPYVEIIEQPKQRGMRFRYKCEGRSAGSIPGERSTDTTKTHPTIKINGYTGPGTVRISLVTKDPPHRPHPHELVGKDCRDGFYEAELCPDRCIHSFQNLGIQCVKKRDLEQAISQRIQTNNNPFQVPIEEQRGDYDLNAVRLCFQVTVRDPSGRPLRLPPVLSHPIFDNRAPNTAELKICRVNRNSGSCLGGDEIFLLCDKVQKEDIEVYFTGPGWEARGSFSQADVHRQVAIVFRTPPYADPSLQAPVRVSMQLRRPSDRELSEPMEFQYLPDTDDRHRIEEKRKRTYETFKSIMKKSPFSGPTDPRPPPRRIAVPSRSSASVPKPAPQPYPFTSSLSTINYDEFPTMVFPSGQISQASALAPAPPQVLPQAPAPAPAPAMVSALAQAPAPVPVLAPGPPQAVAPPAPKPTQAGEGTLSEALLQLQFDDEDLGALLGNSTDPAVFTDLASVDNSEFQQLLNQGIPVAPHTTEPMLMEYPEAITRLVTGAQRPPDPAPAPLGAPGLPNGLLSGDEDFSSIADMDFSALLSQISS

A word on the IC50: it is the concentration that gives 50% inhibition. Consider `COC(=O)[C@H]1[C@@H](O)[C@@]2(O)c3c(OC)cc(O[C@@H]4O[C@@H]([C@H](O)CO)CO[C@@H]4OC)cc3O[C@@]2(c2ccc(OC)cc2)[C@@H]1c1ccccc1` [5'''-episilvestrol], for which the IC50 was > 20 µM.

The values above are taken from BindingDB's records for doi:10.1021/np100503q (The Ohio State University, 2010).
